Experimental data reported in patent EP1618784A1, “AQUEOUS AGRICULTURAL-CHEMICAL SUSPENSION COMPOSITION” (KUMIAI CHEMICAL INDUSTRY CO., LTD., priority 2003, dated 2004).
Structures can show the parent of a compound that is named as a salt. Where two headings read alike, the source gives them in different places.

Tests used:
[1] = cited from earlier work
[2] = Solubility of the agrochemically active ingredient in the aqueous solution of water-soluble compound (B); type: physicochemical
Experimental: While the method for measuring the solubility of the agrochemically active ingredient as the component (A) in the aqueous solution of the water-soluble compound as the component (B) is not particularly limitative, the method contains, for example, adding an excess amount of the agrochemically active ingredient in an aqueous solution in which given quantities of the water-soluble compound are dissolved in water, filtering the solution with a membrane filter after stirring at room temperature for several hours, and analyzing the concentration in the filtrate according to an analysis method of the respective agrochemically active ingredients to calculate the solubility. The concentrations of the water-soluble compounds for allowing the solubility of the respective agrochemically active ingredients to be smaller than 2 g/100 ml are determined in the invention by preparing aqueous solutions with different concentrations of variety of the component (B) such as an inorganic acid, the specified organic acid and alkali metal salt and ammonium salt thereof and by measuring the solubility of the agrochemically active ingredient in each aqueous solution.

COC(=O)c1ccc(C(F)(F)F)nc1S(=O)(=O)NC(=O)Nc1nc(OC)cc(OC)n1.[Na] [flupyrsulfuron-methyl-sodium, methyl 2-(4,6-dimethoxypyrimidine-2-ylcarbamoylsulfamoyl)-6-trifluoromethylnicotinate monosodium salt]
solubility in water ([1]; 20 °C, pure water): 6.3 g/100 ml

COc1nn(C(=O)NS(=O)(=O)c2ccccc2OC(F)(F)F)c(=O)n1C [flucarbazone-sodium, 4,5-dihydro-3-methoxy-4-methyl-5-oxo-N-[(2-(trifluoromethoxy)phenylsulfonyl]-1 H-1,2,4-triazole-1-carboxyamidesodium salt]
solubility ([2]; aqueous acetic acid/sodium acetate, 0.23 part acetic acid and 2.8 parts sodium acetate in 73.77 parts water (Example 5)): 11 mg/mL
solubility in water ([1]; 20 °C, pure water): 4.4 g/100 ml

Oc1cccc2cccnc12 [8-hydroxyquinoline sulfate, bis(8-hydroxyquinolinium)sulfate]
solubility in water ([1]; 20 °C, pure water): 30 g/100 ml

COC(=O)NS(=O)(=O)c1ccc(N)cc1.[Ca] [asulam-calcium, calcium methyl sulfanilylcarbamate]
solubility in water ([1]; 20 °C, pure water): 20 g/100 ml

COc1cc(OC)nc(Sc2cccc(Cl)c2C(=O)[O-])n1.[Na+] [pyrithiobac-sodium, sodium 2-chloro-6-(4,6-dimethoxypyrimidin-2-ylthio)benzoate]
solubility in water ([1]; 20 °C, at pH 5): 26.4 g/100 ml

COc1cc(OC)nc(Oc2cccc(Oc3nc(OC)cc(OC)n3)c2C(=O)[O-])n1.[Na+] [bispyribac-sodium, sodium 2,6-bis(4,6-dimethoxypyrimidin-2-yloxy)benzoate]
solubility ([2]; aqueous ammonium hydrogencarbonate, 3.1 parts ammonium hydrogencarbonate in 75.4 parts water (Example 4)): 9 mg/mL
solubility ([2]; aqueous sodium chloride, 3.1 parts sodium chloride in 75.4 parts water (Example 3)): 6 mg/mL
solubility ([2]; aqueous sodium hydrogencarbonate/sodium carbonate, 1.4 parts sodium hydrogencarbonate and 0.16 part sodium carbonate in 76.94 parts water (Comparative Example 2)): 30 mg/mL
solubility ([2]; aqueous sodium hydrogencarbonate/sodium carbonate, 1.6 parts sodium hydrogencarbonate and 0.18 part sodium carbonate in 46.77 parts water (Example 1)): 14 mg/mL
solubility ([2]; aqueous sodium hydrogencarbonate/sodium carbonate, 3.9 parts sodium hydrogencarbonate and 0.44 part sodium carbonate in 74.16 parts water (Example 2)): 4 mg/mL
solubility in water ([1]; 20 °C, pure water): 7.3 g/100 ml

CCc1c(C(=O)[O-])c(=O)cnn1-c1ccc(Cl)cc1.[K+] [clofencet-potassium, potassium 2-(4-chlorophenyl)-3-ethyl-2,5-dihydro-5-oxopyridazine-4-carboxylate]
solubility in water ([1]; 20 °C, pure water): at least 65.5 g/100 ml

Cc1cc(Cl)ccc1OCC(=O)[O-].[Na+] [MCPA-sodium, sodium (4-chloro-2-methylphenoxy)acetate]
solubility in water ([1]; water): 27 g/100 ml

CN/C(=N/CC1CCOC1)N[N+](=O)[O-] (racemic) [dinotefuran, (EZ)-(RS)-1-methyl-2-nitro-3-(tetrahydro-3-furylmethyl)guanidine]
solubility in water ([1]; 20 °C, pure water): 5.43 g/100 ml
